Measurements published in patent publication US12454675B2, “Method of increasing protein yield in mammalian cells in serum-free culture medium” (AGENCY FOR SCIENCE, TECHNOLOGY AND RESEARCH, priority 2016, dated 2025).

Key:
CHO-DG44 cells = test: Disaccharides to support growth of CHO-DG44 cells in HyQ PF-CHO; type: cell-based, Chinese Hamster; conditions: 10 g/l sugar, 22 days
From the text: (§1) In (A) CHO-K1 cells were cultivated in a serum-free protein-free cell culture medium, HyQ PF-CHO, with 3.6 g/l of different sugars (maltose, sucrose, lactose, trehalose or glucose) as carbohydrate source. The viable cell densities (lined markers) and culture viabilities (marker only) of these cultures at the beginning and end of each passage over a period of 74 days were plotted. Cultures with sucrose, lactose or trehalose were terminated on Day 31 due to the decreased culture viabilities and reduced viable cell densities. The experiment was repeated with a seeding cell density of 1.0×10^6 cells/ml to obtain similar results. In (B) CHO-DG44 cells were cultivated with a seeding cell density of 1.0×10^6 cells/ml in a serum-free protein-free cell culture medium, HyQ PF-CHO, with 10 g/l of different sugars (maltose, sucrose, lactose, trehalose or glucose) as carbohydrate source. The viable cell densities (lined markers) and cell viabilities (marker only) of these cultures at the beginning and end of each passage over a period of 22 days were plotted. In (C) HEK293 cells were cultivated with a seeding cell density of 1.0×10^6 cells/ml in a protein-free chemically defined cell culture medium, PFCDM, with 10 g/l of different sugars (maltose, sucrose, lactose, trehalose or glucose) as carbohydrate source. The viable cell densities (lined markers) and cell viabilities (marker only) of these cultures at the beginning and end of each passage over a period of 22 days were plotted. Cultures with sucrose, lactose or trehalose were terminated on Day 14 due to the decreased culture viabilities and reduced viable cell densities.
To determine whether the same approach can be applied on other CHO cell lines, the use of disaccharides to support the growth of CHO-DG44 cells was evaluated. These cells were cultivated with 10 g/l of maltose, sucrose, lactose, trehalose or glucose as energy source in a serum-free protein-free cell culture medium HyQ PF-CHO. The viable cell densities and culture viabilities of these cultures at the beginning and end of each passage over a period of 22 days are shown in FIG. 1B.

[1] = Maltose and glucose profiles in cell-free conditioned media; type: physicochemical; conditions: cell-free conditioned media of Days 2, 4, 6, 8; 3 g/l maltose; 37° C., 3 days
Description: In (A) SH87 cell were routinely maintained in glucose-only PFCDM was sub-cultivated into PFCDM with 4 g/l glucose, or 4 g/l glucose+3 g/l maltose. On Days 2, 4, 6 and 8, cell-free conditioned medium (CM) were harvested from both cultures. Viable cell densities (lined marker) and culture viabilities (marker only) were also monitored. In (B) CM from the maltose supplemented culture were incubated for a further 3 days at 37° C. Samples were harvested daily from these CM, starting from the day of harvest, to determine glucose and maltose concentrations. In (C) CM harvested from the glucose culture were spiked with maltose to a final concentration of 3 g/l prior to further incubation at 37° C. Samples from these CM were harvested daily for a further three (3) days to determine glucose and maltose concentrations. The averages and standard deviations from two (2) replicate shake flasks were plotted.
To further validate that the maltose was indeed utilized by the cells and not hydrolyzed in the culture media, cell-free conditioned media (CM) from Days 2, 4, 6 and 8 were obtained from a 3 g/l maltose supplemented culture as well as a 4 g/l glucose culture. 3 g/l maltose was spiked into the CM from the glucose culture, and both sets of CM were monitored over 3 days for changes in glucose and maltose concentrations at 37° C. (FIG. 4). […]

CHO-K1 cells = test: Adaptation of CHO-K1 cells into HyQ PF-CHO media with different disaccharides; type: cell-based, Chinese Hamster; conditions: 3.6 g/l sugar
Description: Viable cell density and culture viability were determined by Trypan blue dye exclusion method using Vi-Cell XR Cell Viability Analyzer (Beckman Coulter, Brea, CA) according to manufacturer's instructions. For biochemical and other cell culture parameter analyses, 1 ml of culture sample was centrifuged at 8000 g for 10 minutes to obtain clarified supernatant. […] At each passage during the adaptation process, viable cell density and culture viability before passage and after inoculation into fresh media were determined. […] Osmolality of these culture media were determined to be between 308 and 324 mOsm/kg, well within the range for optimal mammalian cell culture. The viable cell densities and culture viabilities of these cultures at the beginning and end of each passage over a period of 74 days are shown in FIG. 1. […] However, culture viabilities and viable cell densities of the maltose culture started to pick up on Day 14. Proliferation of the cells in maltose culture then maintained over the period of the time studied, while those in the other disaccharides were terminated on Day 31 due to the lack of cell growth and depressed culture viabilities.

HEK293 cells = test: Disaccharides to support growth of HEK293 cells in PFCDM; type: cell-based; conditions: 10 g/l sugar, seeding 1.0×10^6 cells/ml, 22 days
From the text: as §1

maltose hydrolysis in conditioned culture media [1]: not occurring spontaneously
SMILES: OC[C@H]1O[C@H](O[C@H]2[C@H](O)[C@@H](O)[C@H](O)O[C@@H]2CO)[C@H](O)[C@@H](O)[C@@H]1O [maltose]
proliferation in serum-free protein-free culture medium with the sugar as sugar source (CHO-DG44 cells): can also proliferate
day on which culture viabilities and viable cell densities started to pick up (CHO-K1 cells): 14 days
proliferation in serum-free protein-free culture medium with the sugar as sugar source (CHO-K1 cells; seeding 0.3×10^6 cells/ml, 74 days): can proliferate
proliferation in serum-free culture medium with the sugar as sugar source (HEK293 cells): can proliferate
